How the values were obtained:
Assay type in all cases: in vivo
POLCO [1] = test: Pre-emergence herbicidal action; settings: Table 2, pre-emergence (PE), 320 g/ha, scored after 3 weeks
How it was run: (§1)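 Activity is a visual percent rating after 3 greenhouse weeks relative to untreated plants, 100% meaning plant death. Treatment was pre-emergence: WP or EC products applied in water (600–800 l/ha, plus 0.2% wetting agent) to covering soil over seeds in sandy loam.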

ECHCG [2] = test: Pre-emergence herbicidal action; settings: Table 2, pre-emergence (PE), 320 g/ha, scored after 3 weeks
How it was run: as §1

ABUTH [3] = test: Pre-emergence herbicidal action; settings: Table 2, pre-emergence (PE), 320 g/ha, scored after 3 weeks
How it was run: as §1

VIOTR [4] = test: Pre-emergence herbicidal action; settings: Table 2, pre-emergence (PE), 320 g/ha, scored after 3 weeks
How it was run: as §1

ALOMY = test: Pre-emergence herbicidal action; settings: Table 2, pre-emergence (PE), 320 g/ha, scored after 3 weeks
How it was run: as §1

SETVI [5] = test: Pre-emergence herbicidal action; settings: Table 2, pre-emergence (PE), 320 g/ha, scored after 3 weeks
How it was run: as §1

AMARE [6] = test: Pre-emergence herbicidal action; settings: Table 2, pre-emergence (PE), 320 g/ha, scored after 3 weeks
How it was run: as §1

POLCO [7] = test: Post-emergence herbicidal action; settings: Table 5, post-emergence (PO), 320 g/ha, assessed after about 3 weeks
How it was run: (§2)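 Greenhouse post-emergence spray, one-leaf stage (2–3 wk after sowing, sandy loam). WP/EC formulation, aqueous, 600–800 l/ha, + 0.2% wetting agent. Visual rating ~3 wk, % vs untreated (100 = dead).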

ECHCG [8] = test: Post-emergence herbicidal action; settings: Table 5, post-emergence (PO), 320 g/ha, assessed after about 3 weeks
How it was run: as §2

ABUTH [9] = test: Post-emergence herbicidal action; settings: 320 g/ha, assessed after about 3 weeks
How it was run: as §2

VIOTR [10] = test: Post-emergence herbicidal action; settings: Table 5, post-emergence (PO), 320 g/ha, assessed after about 3 weeks
How it was run: as §2

PHBPU = test: Post-emergence herbicidal action; settings: Table 5, post-emergence (PO), 320 g/ha, assessed after about 3 weeks
How it was run: as §2

SETVI [11] = test: Post-emergence herbicidal action; settings: 320 g/ha, assessed after about 3 weeks
How it was run: as §2

STEME = test: Post-emergence herbicidal action; settings: 320 g/ha, assessed after about 3 weeks
How it was run: as §2

AMARE [12] = test: Post-emergence herbicidal action; settings: 320 g/ha, assessed after about 3 weeks
How it was run: as §2

SMILES | Herbicidal action against POLCO (POLCO [1]) [%] | Herbicidal action against ECHCG (ECHCG [2]) [%] | Herbicidal action against ABUTH (ABUTH [3]) [%] | Herbicidal action against VIOTR (VIOTR [4]) [%] | Herbicidal action against ALOMY (ALOMY) [%] | Herbicidal action against SETVI (SETVI [5]) [%] | Herbicidal action against AMARE (AMARE [6]) [%] | Herbicidal action against POLCO (POLCO [7]) [%] | Herbicidal action against ECHCG (ECHCG [8]) [%] | Herbicidal action against ABUTH (ABUTH [9]; Table 5, post-emergence (PO)) [%] | Herbicidal action against VIOTR (VIOTR [10]) [%] | Herbicidal action against PHBPU (PHBPU) [%] | Herbicidal action against SETVI (SETVI [11]; Table 5, post-emergence (PO)) [%] | Herbicidal action against STEME (STEME; Table 5, post-emergence (PO)) [%] | Herbicidal action against AMARE (AMARE [12]; Table 5, post-emergence (PO)) [%] | Herbicidal action against ABUTH (ABUTH [9]; Table 6, post-emergence (PO)) [%] | Herbicidal action against SETVI (SETVI [11]; Table 6, post-emergence (PO)) [%] | Herbicidal action against STEME (STEME; Table 6, post-emergence (PO)) [%] | Herbicidal action against AMARE (AMARE [12]; Table 6, post-emergence (PO)) [%]
Nc1cc(-c2ccc3ccsc3c2)nc(C(=O)OCc2ccccc2F)c1Cl [Example I-01] | 100 | 100 | 80 | 70 | 60 | 90 | 100 | 100 | 90 | 100 | 50 | 90 | 80 | 100 | 100 |  |  |  | 
Nc1cc(-c2ccc3ccoc3c2)nc(C(=O)OCc2cccc(F)c2)c1Cl [Example I-02] | 100 | 100 | 30 | 70 | 80 | 90 | 100 | 100 | 90 | 90 | 70 | 70 | 100 | 100 | 100 |  |  |  | 
COc1ccc(COC(=O)c2nc(-c3ccc4ccoc4c3)c(F)c(N)c2Cl)cc1 [Example I-03] | 50 | 90 | 80 | 90 | 20 | 40 | 100 | 40 | 100 | 100 | 100 | 40 | 90 | 100 | 100 |  |  |  | 
Nc1c(F)c(-c2ccc3ccoc3c2)nc(C(=O)OCc2ccc(F)cc2)c1Cl [Example I-04] | 50 | 90 | 90 | 40 | 40 | 70 | 100 | 80 | 100 | 100 | 50 | 40 | 90 | 100 | 100 |  |  |  | 
Nc1cc(-c2ccc3occc3c2)nc(C(=O)OCc2c(F)cc(F)cc2F)c1Cl [Example I-20] | 100 | 100 | 50 | 40 | 70 | 100 | 100 |  |  |  |  |  |  |  |  | 100 | 100 | 100 | 100
Nc1cc(-c2ccc3occc3c2)nc(C(=O)OCc2ccc(C(F)(F)F)cc2)c1Cl [Example I-36] | 90 | 90 | 90 | 0 | 50 | 90 | 100 |  |  |  |  |  |  |  |  | 100 | 80 | 100 | 100
